Holding throughout (experiment): NCI anticancer screen, dose series, 48 h
For assay [1], the system named is U251 CNS.
Assay [2] deals with LOX IMVI melanoma.
Assay [3] has as its system 786-0 renal.
Assay [4] concerns COLO 205 colon.
Assay [5] has as its system SR leukemia.
The test system of assay [6] is EKVX NSCLC.
Assay [7] concerns CAKI-1 renal.
Assay [8] has as its system SF-295 CNS.
The subject of assay [9] is SF-268 CNS.
Assay [10] relates to RPMI-8226 leukemia.

For ten compounds, TGI and GI50 results are on record in PubChem BioAssay (NCI).

“And” between values parts separate entries of the source, which are not always exact repeats. Equal entries are not always repeated.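 Assay format: 96-well plates, 48-hour exposure. Abbreviation: GI50, concentration required for 50% inhibition of growth. TGI marks complete inhibition of growth.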 Bounds are passed on as bounds.

Take `CC1NOC(=O)C1N=Nc1cccc(Cl)c1` (stereo unspecified): the TGI in [1] is 60.2 µM; in assay [2], > 100 µM; in [3], > 100 µM; in [4], 55.7 µM; in assay [5], 71.5 µM; in assay [6] it was > 100 µM. The TGI in [7] was > 100 µM; in assay [8], > 100 µM; in assay [9] it was 89.9 µM.

Consider `COc1cc(C2CC(c3ccccc3)=NN2C=O)ccc1Oc1ccnc2cc(Cl)ccc12` (stereo unspecified), for which the GI50 is 19.8 µM in assay [1]; > 100 µM in assay [2]; 11.5 µM in assay [3]; > 100 µM in assay [4]; > 100 µM in assay [5]; 3.67 µM in [6]. Moreover, the figures for the GI50 in assay [7], in assay [8] and in assay [9] were 5.2 µM, 5.58 µM and 23.2 µM, respectively. For the same compound, the TGI is > 100 µM in assay [1]; > 100 µM in assay [2]; 73.7 µM in [3]; > 100 µM in assay [4]; > 100 µM in assay [5]; > 100 µM in assay [6]. Also, the TGI is > 100 µM in assay [7], 86.2 µM in assay [8] and > 100 µM in [9].

Turning to `Nc1ncn([C@H]2CC(O)[C@@H](CO)S2)c(=O)n1` (stereo partly specified), the GI50 was 12.7 µM in [1]; 4.48 µM in [2]; 13.9 µM in assay [3]; 0.839 µM in assay [4]; 6.22 µM in assay [10]; 32.8 µM in assay [6]. Further, the GI50 in assay [7] is 1.99 µM; in assay [8], 35.5 µM; in assay [9], 16.4 µM. Also, the TGI in assay [1], in assay [2], in assay [3], in assay [4], in assay [10] and in assay [6] was > 100 µM in each case. Also, the TGI in [7], in assay [8] and in [9] was > 100 µM in each case.

Turning to `CCCCCCCCCCCCCCCCCc1nc(Cl)nc(Cl)c1Cl`, the TGI in assay [1], in assay [2], in [3], in [4], in assay [5] and in assay [10] was > 100 µM in each case. Besides, the TGI in assay [7], in [8] and in assay [9] was > 100 µM throughout.

Take `O=S(=O)(c1ccccc1)N1CCCC(c2ccccc2)CC1` (stereo unspecified): the TGI is > 100 µM in assay [1]; > 100 µM in assay [3]; > 100 µM in assay [4]; > 100 µM in [5]; 49.8 µM in assay [10]; > 100 µM in assay [7]. Also, the TGI in assay [8] and in assay [9] was > 100 µM throughout.

For `COc1cc(N=Nc2cc(Cc3ccc(N(C)C)cc3)c(N)cc2N(C)C)c2ncccc2c1`, the GI50 is 0.466 µM in [1]; 0.465 µM in [2]; 1.01 µM in assay [3]; 0.176 µM in [4]; 0.313 µM in assay [10]; 0.332 µM in assay [6]. Further, the GI50 in assay [7] was 0.408 µM; in assay [8], 0.618 µM; in assay [9], 0.593 µM. The TGI worked out at 1.94 µM in assay [1]; 1.87 µM in [2]; 2.25 µM in [3]; 1.21 µM in assay [4]; 2.1 µM in [10]; 1.98 µM in [6]. For the same compound, the TGI in assay [7] is 2.37 µM; in [8], 2 µM; in [9], 2.31 µM.

Consider `CCCCCCCCCCCC/C=C\CC[C@@H](O)[C@H](O)CC[C@H](O)[C@@H]1CC[C@@H](CCCCCCCC2=C[C@H](C)OC2=O)O1`, for which the GI50 is 13.7 µM in assay [1]; 3.55 µM in assay [2]; 15.7 µM in assay [3]; 7.21 µM in [4]; 1.43 µM in assay [10]; 11.6 µM in [6]. Also, the GI50 in assay [8] was 0.291 µM; in assay [9], 14.2 µM. Further, the TGI was > 100 µM in assay [1]; 4.84 µM and 32.3 µM in assay [2]; 40.3 µM in assay [3]; 8.36 µM and 22.9 µM in assay [4]; 3.87 µM in assay [10]; 28.9 µM in assay [6]. Moreover, the TGI is 35.7 µM in assay [7], 15.5 µM in [8] and 38 µM in assay [9].

On to `COC(=O)c1c(C)nc(C)c2c1C(=O)C(Br)=C(NCc1ccccc1)C2=O`, for which the GI50 is 2.74 µM in [1]; 2.45 µM in assay [2]; 4.65 µM in [3]; 1.7 µM in assay [4]; 3.24 µM in assay [10]; 2.12 µM in assay [6]. Further, the figures for the GI50 in assay [7], in assay [8] and in assay [9] were 5.66 µM, 3.04 µM and 3.46 µM, respectively. For the same compound, the TGI was 8.34 µM in [1]; 10.8 µM in assay [2]; 16.3 µM in [3]; 3.63 µM in [4]; 11.7 µM in [10]; 5.35 µM in assay [6]. The TGI worked out at 18.7 µM in assay [7], 10.4 µM in assay [8] and 13.5 µM in [9].

`CCOc1ccc(NC(=O)CC2SC(=Nc3ccc(C)cc3)NC2=O)cc1` (stereo unspecified): the TGI in [1], in [2], in [3], in assay [4], in assay [5] and in [6] was > 100 µM each time. Moreover, the TGI in assay [8] and in assay [9] was > 100 µM throughout.

For `COc1cc2ncn(-c3cc(OCc4ccccc4C(F)(F)F)c(C(N)=O)s3)c2cc1OC`, the GI50 in [1] is 0.206 µM; in assay [2], 0.139 µM; in assay [3], 1.56 µM; in assay [4], 0.117 µM; in assay [10] it was 0.278 µM; in assay [6], 3.69 µM. Further, the GI50 is 3.88 µM in assay [7], 0.131 µM in assay [8] and 0.225 µM in assay [9]. The TGI in assay [1] is > 19.3 µM; in assay [2], > 25 µM; in assay [3], 22.5 µM; in assay [4], > 25 µM; in assay [10], > 25 µM; in [6] it was > 25 µM. The results for the TGI in assay [7], in assay [8] and in assay [9] were > 25 µM, 6.9 µM and > 25 µM, respectively.
